Where two headings read alike, the source gives them in different places.
Key:
[1] = PGRMC1 binding assay control: non-specific [^3H] ligand association with membranes from untransformed bacteria (−PGRMC1); set-up: species or system E. coli; conditions: for Q1 / Q2: two binding site model; for Q1: number of non-specific sites; for Q2: number of specific sites
Protocol: IPTG-induced cells were harvested by centrifugation (5,000 rpm; 5 min) and washed with ice-cold H2O. The pellet was resuspended in 5 mL buffer A (50 mM Tris-HCl pH 7.5, 150 mM NaCl, 0.1% NP40, and 10% glycerol) with 5-10 mg lysozyme, and incubated on ice for 30 min. The cells were then disrupted by three bursts of sonication (45 sec) at high intensity with a 45 sec cooling period between bursts. Soluble material was removed by centrifugation (15,000 rpm, 10 min) and the pellet resuspended in 5 mL buffer A. His10-PGRMC1 (His10 disclosed as SEQ ID NO: 14) was confirmed to be present in purified membranes by SDS-PAGE followed by Coomassie stain and western blot using anti-tetra-His (SEQ ID NO: 15) antibody (Qiagen). Total protein in the His10-PGRMC1 (His10 disclosed as SEQ ID NO: 14) transformed and untransformed purified membranes was determined by the Bradford method and membranes were normalized to 10 μg/μL total protein (diluted with buffer A). Purified membranes were then aliquoted and stored frozen until use.
(§1) The standard 10 μL binding reaction contained 10 μp purified membranes (total protein) and 10 μM [^3H] progesterone or [^3H] cholesterol (3,000-5,000 cpm) in buffer A: 20% ethanol. Stock solutions (100 μM) of [^3H] cholesterol and [^3H] progesterone containing ˜4×10^4 cpm/μL, were prepared in 95% ethanol. Reactions were prepared in clear 2.0 mL microcentrifuge tubes on ice. To start the reaction, the microfuge tube was briefly mixed (vortex) and placed at 37° C. Following a 10 to 30 min incubation, the tubes were centrifuged in a microfuge (˜13,000 rpm) for 2 min. The supernatant was carefully removed and the pellet was washed with an additional 10 μL water. After a second round of centrifugation (2 min; 13,000 rpm), the resulting supernatant was combined with the first and the pellet was resuspended in 20 μL H2O, Scintillation fluid (700 μL Wallac Optiflour) was added to each fraction and the fractions were mixed extensively. The fractions were then counted in a multi-well scintillation counter (Wallac Microbeta Triluxmax, Waltham, Mass.) for 30 seconds each. Binding are reported as μ/moles of ligand bound per mg of membrane protein. His10-PGRMC1 (His10 disclosed as SEQ ID NO: 14)-specific binding is reported as the difference in binding between transformed and untransformed bacteria. Experimental deviations from the standard assay conditions are noted in individual figure legends.
In order to better understand PGRMC1's biological function and to study ligand binding, an in vitro binding assay was developed. E. coli BL21 codon plus (RIPL) cells were transformed with a vector encoding PGRMC1 that was epitope tagged with 10 histidine (SEQ ID NO: 14) residues at the NH2-terminus. Untransformed BL21 cells were used as the control. A purification procedure was performed to remove soluble proteins and cell components from the transformed (+PGRMC1) and untransformed (−PGRMC1) bacterial membranes. The resulting purified membranes were confirmed for the presence and absence of His10-PGRMC1 (His10 disclosed as SEQ ID NO: 14) respectively by Coomassie stain and western blot using anti-His antibody. The membranes with [^3H] progesterone or [^3H] cholesterol were then incubated. The membranes were spun out, washed, and counted in a scintillation counter. His10-PGRMC1 (His10 disclosed as SEQ ID NO: 14) specific binding was then determined by subtracting total membrane-associated ligand (nmols/mg protein) in membranes prepared from untransformed bacteria (−PGRMC1) with membranes purified from bacteria expressing His10-PGRMC1 (His10 disclosed as SEQ ID NO: 14) (+PGRMC1).
To further explore the nature of ligand binding to His10-PGRMC1 (His10 disclosed as SEQ ID NO: 14), several in silico modeling experiments fitting the saturation data to different models of ligand binding were performed. The best statistical fit of the data was to a two binding site model. […]

[2] = target: T1, His10-PGRMC1 (Homo sapiens, UniProt O00264); experiment: Competition of cold competitors with [^3H] progesterone or [^3H] cholesterol for His10-PGRMC1 binding; conditions: for effect of cold competitor on binding of [^3H] cholesterol: competitor at ten-fold higher concentration; for effect of cold competitor on specific binding of [^3H] progesterone: excess cold competitor (10 or 100-fold), FIG. 9
T1 construct: a product containing the full length coding region of PGMRC1 flanked by Nde1 and BamHI restriction sites; made in house; host or cells: E. coli BL21 (DE3) / BL21 codon plus (RIPL); purified bacterial membranes
Protocol: as §1
To test whether progesterone and cholesterol compete for the same specific binding site, the direct binding of [^3H] progesterone or [^3H] cholesterol to His10-PGRMC1 (His10 disclosed as SEQ ID NO: 14) in the presence of various cold competitors was examined. In these experiments, the standard amount of [^3H] ligand was combined with a cold competitor at either 10 or 100-fold higher concentration and mixed well to ensure homogeneity. These stock ligand solutions were then used in the standard binding assay as described.
The ability of other putative ligands reported in the literature to compete with progesterone binding was examined. […] As a control, cold progesterone (P) was used as a competitor and it was observed that excess cold progesterone competes with [^3H] progesterone for His10-PGRMC1 (His10 disclosed as SEQ ID NO: 14) binding. Contrastingly, binding of [^3H] cholesterol to His10-PGRMC1 (His10 disclosed as SEQ ID NO: 14) was unaffected by the presence of progesterone, ergosterol, or heme at ten-fold higher concentrations (FIG. 9, cholesterol). It was not until competitor concentrations were 100-fold higher than ligand that a reduction of cholesterol binding was observed.

[3] = first category of sites, present in both +PGRMC1 and −PGRMC1 membranes, read-out: Kd of non-specific binding
[4] = two binding site model fit of saturation data, −PGRMC1 membranes, non-specific site, read-out: Kd1

T1 sequence (O00264 whole entry): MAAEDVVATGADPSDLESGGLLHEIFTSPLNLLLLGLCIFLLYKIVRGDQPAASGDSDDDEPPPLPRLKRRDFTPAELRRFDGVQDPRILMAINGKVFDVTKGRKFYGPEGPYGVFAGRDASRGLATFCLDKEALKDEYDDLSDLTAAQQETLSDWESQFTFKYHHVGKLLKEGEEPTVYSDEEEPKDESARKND

CC(C)CCC[C@@H](C)[C@H]1CC[C@H]2[C@@H]3CC=C4C[C@@H](O)CC[C@]4(C)[C@H]3CC[C@]12C [Cholesterol, cholesterol]
Kd [1, 3]: ~1000 µM
Kd [1, 4]: 900 µM
Q1 ([1]; −PGRMC1 membranes): 8.4 × 10^9 Sites
Q2 ([1]; −PGRMC1 membranes): 0 Sites
Membrane-Associated [^3H] Ligand ([1]; −PGRMC1 membranes, Protease −): 3.7 ± 0.3 nmoles/mg protein
competitor excess over ligand at which a reduction of [^3H] cholesterol binding was observed [2]: 100 fold
effect of cold competitor on binding of [^3H] cholesterol [2]: did not begin to reduce
effect of cold competitor on specific binding of [^3H] progesterone [2]: greatly reduced

CC(=O)[C@H]1CC[C@H]2[C@@H]3CCC4=CC(=O)CC[C@]4(C)[C@H]3CC[C@]12C [Progesterone, progesterone]
Kd [1, 3]: ~1000 µM
Kd [1, 4]: 1700 µM
Q1 ([1]; −PGRMC1 membranes): 8.4 × 10^9 Sites
Q2 ([1]; −PGRMC1 membranes): 0 Sites
Membrane-Associated [^3H] Ligand ([1]; −PGRMC1 membranes, Protease + (trypsin before ligand binding)): 1.6 ± 0.2 nmoles/mg protein
Membrane-Associated [^3H] Ligand ([1]; −PGRMC1 membranes, Protease −): 2.4 ± 0.1 nmoles/mg protein
effect of cold competitor on binding of [^3H] cholesterol [2]: unaffected
effect of cold competitor on specific binding of [^3H] progesterone [2]: competes

— patent US8187821B2, “Compositions and methods for the modulation of PGRMC1” (University of Utah Research Foundation, priority 2008, dated 2012)
